Reference: PMC12105006, “AI-Driven De Novo Design and Development of Nontoxic DYRK1A Inhibitors” (Journal of Medicinal Chemistry, 2025)
Entries after “also recorded” stand apart in the source; their conditions may differ. Like-named read-outs stand apart in the source and are kept apart here.

Experiments:
PAMPA-BBB assay = type: in vitro ADME; conditions: for BBB prediction: PAMPA-BBB, porcine brain lipid, 3 h, 25 °C
Protocol: The brain penetration of active compounds was assessed using a parallel artificial membrane permeability assay (PAMPA). Eleven drugs with known blood–brain barrier (BBB) permeability–Hydrocortisone, testosterone, imipramine, piroxicam, promazine, clonidine, desipramine, ofloxacin, aldosterone, verapamil, and caffeine–were included in each experiment to validate the analysis.
The compounds were dissolved in a 70/30 PBS pH = 7.4 buffer/ethanol solution at a concentration that ensured appropriate absorbance values in the UV–vis light spectrum. A 5 mL volume of these solutions was filtered using PDVF membrane filters (30 mm diameter, 0.45 μ m pore size).
The acceptor 96-well microplate (MultiScreen 96-well Culture Tray clear, Merck Millipore) was filled with 200 μL of PBS/ethanol (70/30). The donor 96-well filtrate plate (Multiscreen IP Sterile Plate PDVF membrane, 0.45 μ m pore size, Merck Millipore) was coated with 4 μL of porcine brain lipid (Spectra 2000) in dodecane (20 mg mL^–1).
After 5 min, 200 μL of each compound solution were added. The donor plate was then carefully placed onto the acceptor plate to form a “sandwich,” which was left undisturbed for 3 h at 25 °C. During this time, the compounds diffused from the donor plate through the brain lipid membrane into the acceptor plate.
After incubation, the donor plate was removed. The concentrations of the compounds and commercial drugs were determined by measuring absorbance in the donor wells (before incubation) and the acceptor wells (after incubation) using a CLARIOstar microplate reader (BMG LABTECH). Each sample was analyzed at five wavelengths in four replicates and two independent experiments.
The permeability coefficient (P e) of each drug, in centimeters per second, was calculated using the following formula Pe=Vd·Vr/(Vd−Vr)·s·t·100·Vd/100·Vd−%T(Vd−Vr) %T=Vr·Ar/Ad·Vd·100 where V d and V r are the volumes of the donor and receptor solutions (0.2 cm^3), s is the membrane area (0.2642 cm^2), t is the incubation time (3 h = 10,800 s), A r is the absorbance of the receptor plate after the experiment, and A d is the absorbance in the donor compartment before incubation. The results obtained for quality control drugs were compared with permeability data from the literature. […] Compounds that correlate with reported P e values between 2 and 4 × 10^–6 cm s^–1 are classified as CNS+/–.

BV2 microglial cells = experiment: MTT cell viability / toxicity in BV2 cells; type: cell-based, mouse
Protocol: (§1) The mouse microglial BV2 cell line was propagated using DMEM, 10% FBS, 1% streptomycin–penicillin, under humidified 5% CO2 and 95% air. On attaining semiconfluence, cells were treated with 400 ng/mL of LPS for 24 h. Some cultures were pretreated for 1 h with the different compounds at several concentrations ranging from 1 to 10 μM. After treatment, cultures were processed for cell viability and nitrite production. Experiments were performed in triplicate. BV2 cells, microglial cells derived from C57/BL6 murine. These cells were immortalized using the v-raf/v-myc carrying J2 retrovirus, resulting in a stable cell line. The cells are commercially available from https://www.cytion.com/BV2-Cells/305156.
Cell viability was determined using the MTT assay, which measures the reduction of 3-(4,5-dimethylthiazol-2-yl)-2,5-diphenyltetrazolium bromide (MTT) to formazan crystals. Briefly, the MTT solution (2 mg/mL) was added to each well and incubated at 37 °C for 2 h. After removing the culture medium, 100 μL of dimethyl sulfoxide was added to each well to dissolve the formazan. The optical density was measured at 532 nm using a microplate reader. The absorbance of the control group was considered as 100% of the cell viability.

Human DYRK1A Kinase = Human DYRK1A Kinase (Homo sapiens, UniProt Q13627); experiment: ADP-Glo DYRK1A kinase enzyme inhibition assay; conditions: for IC50: read-out: IC50 (nM) DYRK1A, ATP (10 μmol/well) and DYRKtidE (4 μmol/well) as substrate, triplicate
[1] = Oxygen radical absorbance capacity (ORAC) antioxidant assay
[2] = test system: LPS-induced NO production in BV2 microglial cells; experiment: LPS-induced nitrite (NO) production, Griess reaction; type: cell-based, mouse; conditions: for dose-dependent inhibition of LPS-induced NO production: decreasing concentrations (Figures S17, S18); for LPS-induced NO production: maximum dose 5 μM (1, 5, 8, 9) or 10 μM (6, 7, 10, 11), LPS 24 h, 1 h pretreatment
Protocol: as §1
The assessment of NO production involved quantifying nitrite levels, one of the end products of NO oxidation, through a procedure based on the diazotization of nitrite by sulfanilic acid (Griess reaction). Upon reaching semiconfluence, cells were exposed to 400 ng/mL of LPS for 24 h. Before this, certain cultures were pretreated with various compounds at concentrations ranging from 0.5 to 10 μM. Following a 24-h incubation period, 50 μL aliquots of the samples were combined with 50 μL of Griess reagent in 96-well plates, and the mixture was allowed to incubate at room temperature for 10 min. The absorbance of the resulting mixture was then measured at 520 nm using a microplate reader.

DYRK1B = DYRK1B (Homo sapiens, UniProt Q9Y463); experiment: ADP-Glo DYRK1B kinase enzyme inhibition assay; conditions: read-out: IC50 (nM) DYRK1B; ATP (10 μmol/well) and DYRKtidE (4 μmol/well) as substrate; triplicate
[3] = phosphate buffer pH 7.4, fluorescein/AAPH

Chain of DYRK1B (Q9Y463 whole entry): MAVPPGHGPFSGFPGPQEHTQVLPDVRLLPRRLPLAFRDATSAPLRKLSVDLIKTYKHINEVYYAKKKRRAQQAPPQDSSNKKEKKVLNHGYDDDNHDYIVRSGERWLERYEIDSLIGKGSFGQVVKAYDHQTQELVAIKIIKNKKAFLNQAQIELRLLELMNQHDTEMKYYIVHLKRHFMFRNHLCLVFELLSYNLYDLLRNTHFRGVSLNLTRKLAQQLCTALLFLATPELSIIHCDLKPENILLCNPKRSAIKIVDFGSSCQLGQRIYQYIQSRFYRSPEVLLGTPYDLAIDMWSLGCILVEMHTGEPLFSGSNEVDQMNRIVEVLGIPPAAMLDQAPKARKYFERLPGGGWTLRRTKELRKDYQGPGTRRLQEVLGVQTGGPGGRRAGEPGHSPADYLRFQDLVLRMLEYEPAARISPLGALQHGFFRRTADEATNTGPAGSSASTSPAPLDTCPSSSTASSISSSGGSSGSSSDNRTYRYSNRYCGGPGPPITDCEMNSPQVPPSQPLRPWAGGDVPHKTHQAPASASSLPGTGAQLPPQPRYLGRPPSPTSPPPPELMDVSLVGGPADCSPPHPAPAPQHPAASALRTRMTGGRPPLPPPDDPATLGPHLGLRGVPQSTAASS

IC50 (Human DYRK1A Kinase) [nM]	IC50 (DYRK1B) [nM]	ability to cross the blood–brain barrier by passive permeation (PAMPA-BBB assay; PAMPA)	Structure (SMILES)	BBB prediction (PAMPA-BBB assay)	toxicity (MTT assay) (BV2 microglial cells; at 5 μM)	toxicity (MTT assay) (BV2 microglial cells; at 10 μM)	DYRK1A activity / IC50 values (Human DYRK1A Kinase)	ORAC [1]	ORAC [1, 3]	dose-dependent inhibition of LPS-induced NO production [2]	LPS-induced NO production [2]	toxicity (MTT assay) (BV2 microglial cells; concentrations up to 10 μM)	ORAC values [1]
41 ± 3	78 ± 3	–	CN1CCC(n2cc(-c3cnc4[nH]cc(-c5cccc(F)c5)c4c3)cn2)CC1 [Compound 1, 3-(3-fluorophenyl)-5-(1-(1-methylpiperidin-4-yl)-1H-pyrazol-4-yl)-1H-pyrrolo[2,3-b]pyridine]	CNS+ (CNS+, correlating with a bibliographic P e > 4)	nontoxic	exhibited toxicity	activity at the nanomolar level; also recorded: comparable to the reference compound, harmine	1.02 ± 0.03	1.02 ± 0.03 μmol of trolox equivalents/μmol of tested compound	particularly strong	most pronounced effects	–	–
79 ± 5	119 ± 11	–	COc1cccc(-c2c[nH]c3ncc(-c4cnn(C5CCN(C)CC5)c4)cc23)c1 [Compound 5, 3-(3-Methoxyphenyl)-5-(1-(1-methylpiperidin-4-yl)-1H-pyrazol-4-yl)-1H-pyrro-lo[2,3-b]pyridine]	CNS+ (CNS+, correlating with a bibliographic P e > 4)	nontoxic	exhibited toxicity	comparable to the reference compound, harmine	1.25 ± 0.07	1.25 ± 0.07 μmol of trolox equivalents/μmol of tested compound	particularly strong	–	–	–
–	577 ± 49	–	CN1CCC(n2cc(-c3cnc4[nH]cc(-c5cc(Cl)cc(Cl)c5)c4c3)cn2)CC1 [Compound 6, 3-(3,5-Dichlorophenyl)-5-(1-(1-methylpiperidin-4-yl)-1H-pyrazol-4-yl)-1H-py-rrolo[2,3-b]pyridine]	CNS+ (CNS+, correlating with a bibliographic P e > 4)	–	–	–	–	–	–	–	nontoxic	around 0.5 trolox equivalents
–	174 ± 31	–	COc1cc(-c2c[nH]c3ncc(-c4cnn(C5CCN(C)CC5)c4)cc23)c(F)cc1C [Compound 7, 3-(2-Fluoro-5-methoxy-4-methylphenyl)-5-(1-(1-methylpiperidin-4-yl)-1H-py-razol-4-yl)-1H-pyrrolo[2,3-b]pyridine]	CNS+ (CNS+, correlating with a bibliographic P e > 4)	–	–	–	1.3 ± 0.1	1.3 ± 0.1 μmol of trolox equivalents/μmol of tested compound	–	–	nontoxic	–
48 ± 3	70 ± 5	–	Fc1cccc(-c2c[nH]c3ncc(-c4cnn(C5CCNCC5)c4)cc23)c1 [Compound 8, 3-(3-Fluorophenyl)-5-(1-(piperidin-4-yl)-1H-pyrazol-4-yl)-1H-pyrrolo[2,3-b]py-ridine]	CNS+ (CNS+, correlating with a bibliographic P e > 4)	nontoxic	exhibited toxicity	comparable to the reference compound, harmine	1.0 ± 0.1	1.0 ± 0.1 μmol of trolox equivalents/μmol of tested compound	particularly strong	most pronounced effects	–	–
81 ± 4	109 ± 8	–	COc1cccc(-c2c[nH]c3ncc(-c4cnn(C5CCNCC5)c4)cc23)c1 [Compound 9, 3-(3-Methoxyphenyl)-5-(1-(piperidin-4-yl)-1H-pyrazol-4-yl)-1H-pyrrolo[2,3-b]pyridine]	CNS+ (CNS+, correlating with a bibliographic P e > 4)	nontoxic	exhibited toxicity	comparable to the reference compound, harmine	1.3 ± 0.1	1.3 ± 0.1 μmol of trolox equivalents/μmol of tested compound	particularly strong	–	–	–
450 ± 18	566 ± 61	in the limit of a positive prediction	Clc1cc(Cl)cc(-c2c[nH]c3ncc(-c4cnn(C5CCNCC5)c4)cc23)c1 [Compound 10, 3-(3,5-Dichlorophenyl)-5-(1-(piperidin-4-yl)-1H-pyrazol-4-yl)-1H-pyrrolo[2,3-b]pyridine]	CNS+/– (Compounds that correlate with reported P e values between 2 and 4 × 10^–6 cm s^–1 are classified as CNS+/–)	–	–	–	0.55 ± 0.07	0.55 ± 0.07 μmol of trolox equivalents/μmol of tested compound	–	–	nontoxic	around 0.5 trolox equivalents
165 ± 17	165 ± 30	–	COc1cc(-c2c[nH]c3ncc(-c4cnn(C5CCNCC5)c4)cc23)c(F)cc1C [Compound 11, 3-(2-Fluoro-5-methoxy-4-methylphenyl)-5-(1-(piperidin-4-yl)-1H-pyrazol-4-yl)-1H-pyrrolo[2,3-b]pyridine]	CNS+ (CNS+, correlating with a bibliographic P e > 4)	–	–	–	1.20 ± 0.1	1.2 ± 0.1 μmol of trolox equivalents/μmol of tested compound	–	–	nontoxic	–
